In patent EP1595878A1, “INDOLE DERIVATIVES WITH APOPTOSIS INDUCING ACTIVITY” (Zentaris GmbH, priority 2004, dated 2005):
≈ marks a conversion by molar mass, not a printed value. Where two headings read alike, the source gives them in different places.

Key:
[1] = test system: humane Cervixkarzinom Zelllinie KB/HeLa (ATCC CCL17); experiment: XTT proliferation assay (cytotoxicity test), KB/HeLa; assay type: cell-based; details: Homo sapiens, read-out: XTT Proliferationsassay, EC50
Source text: (§1) Die Substanzen 1, 2, 4, 9, 11, 12 , 13 und 15 wurden in einem Proliferationstest an etablierten Tumorzelllinien auf ihre anti-proliferative Aktivität hin untersucht (D.A. Scuderio et al. Cancer Res. 1988, 48, 4827-4833). Der verwendete Test bestimmt die zelluläre Dehydrogenase-Aktivität und ermöglicht eine Bestimmung der Zellvitalität und indirekt der Zellzahl. Bei den verwendeten Zelllinien handelt es sich um die humane Cervixkarzinom Zelllinie KB/HeLa (ATCC CCL17), die ovariale Adenokarzinomzelllinie SKOV-3 (ATCC HTB77), die humane Glioblastom Zelllinie SF-268 (NCI 503138) und die Lungenkarzinom Zelllinie NCI-H460 (NCI 503473).

[2] = test system: ovariale Adenokarzinomzelllinie SKOV-3 (ATCC HTB77); experiment: XTT proliferation assay (cytotoxicity test), SKOV-3; assay type: cell-based; details: Homo sapiens, SK-OV-3; SKOV3; read-out: XTT Proliferationsassay, EC50
Source text: as §1

[3] = test system: humane Glioblastom Zelllinie SF-268 (NCI 503138); experiment: XTT proliferation assay (cytotoxicity test), SF-268; assay type: cell-based; details: Homo sapiens, read-out: XTT Proliferationsassay, EC50
Source text: as §1

[4] = test system: Lungenkarzinom Zelllinie NCI-H460 (NCI 503473); experiment: XTT proliferation assay (cytotoxicity test), NCI-H460; assay type: cell-based; details: Homo sapiens, NCl-H460, read-out: XTT Proliferationsassay, EC50
Source text: as §1

[5] = test system: akute myeloische Leukaemie Zelllinie LT12; experiment: XTT proliferation assay, LT12 wild type; assay type: cell-based; details: Rattus norvegicus, LT12, read-out: XTT Proliferationsassay, EC50
Source text: as §1, with “503473). Tabelle 1:” for “503473).”
(§2) Zur weiteren Charakterisierung wurden die Substanzen 1, 2, 4 und 11 gegenüber multi drug resistenten Zelllinien im Vergleich zu den nicht-resistenten Wildtypzelllinien untersucht.
(§3) Bei den untersuchten Zelllinien handelt es sich um die murine L1210, die akute myeloische Leukaemie Zelllinie LT12 und um die resistenten Linien L1210/mdr und LT12/mdr. Außerdem wurden die murine P388 Zelllinie (methyl-cholanthreneinduced lymphoid neoplasm) sowie die Doxorubicin-resistente P388 als Testsysteme herangezogen.

LT12/mdr = experiment: XTT proliferation assay, resistant LT12/mdr; assay type: cell-based; details: Rattus norvegicus
Source text: as §1, with “503473). Tabelle 1:” for “503473).”
as §2, §3

murine L1210 = experiment: XTT proliferation assay, L1210 wild type; assay type: cell-based; details: Mus musculus, L1210, read-out: XTT Proliferationsassay, EC50
Source text: as §1, with “503473). Tabelle 1:” for “503473).”
as §2, §3

L1210VCR = experiment: XTT proliferation assay, resistant L1210; assay type: cell-based, murine; details: Mus musculus
Source text: as §1, with “503473). Tabelle 1:” for “503473).”
as §2, §3

[6] = test system: murine P388 Zelllinie (methyl-cholanthreneinduced lymphoid neoplasm); experiment: XTT proliferation assay, P388 wild type; assay type: cell-based; details: Mus musculus, P388, read-out: XTT Proliferationsassay, EC50
Source text: as §1, with “503473). Tabelle 1:” for “503473).”
as §2, §3

[7] = test system: Doxorubicin-resistente P388; experiment: XTT proliferation assay, doxorubicin-resistant P388; assay type: cell-based, murine; details: Mus musculus
Source text: as §1, with “503473). Tabelle 1:” for “503473).”
as §2, §3

KB/HeLa Zellen = experiment: Cell cycle analysis (G2/M arrest); assay type: cell-based; details: Homo sapiens, read-out: EC50 in nM (50% cells in G2/M)
Source text: Der Zellzyklus umfasst die Entwicklung der Zelle von einer Zellgeneration zur nächsten.
Während der Ruhephase (G0) und präsynthetischen Phase (G1) besitzt die Zelle einen diploiden Chromosomensatz (2c). In der Synthesephase (S) wird die DNA-Menge durch Replikation vermehrt. Die S-Phase endet mit Erreichen der prämitotischen Phase (G2M), in der die Zelle einen reduplizierten Chromosomenbestand (4c) und verdoppelten DNA-Gehalt aufweist. In der nachfolgenden, kurzdauernden Mitosephase (M) kommt es zur gleichmäßigen Aufteilung der reduplizierten Chromosomen auf zwei Tochterzellen, die dann jeweils wieder einen diploiden DNA Gehalt zeigen und sich in der G01-Phase befinden, so daß der Zellzyklus neu beginnen kann.
Für die Zellzyklusanalyse wurden KB/HeLa Zellen mit den Testsubstanzen in unterschiedlichen Konzentrationen (0.1-1000 nM) 24 Stunden bei 37°C behandelt.
Der prozentuale Anteil der in der G2/M Phase des Zellzyklus arrettierten Zellen nach Behandlung mit Referenz- oder ausgewählten Testsubstanzen ist in der nachfolgenden Tabelle 4 dargestellt. Die Ergebnisse wurden mit einer speziellen Analysesoftware (ModFit™) ausgewertet.

U-937 Zelllinie = experiment: CDD plus nucleosome ELISA test (apoptosis detection); assay type: cell-based; details: U-937, 1nM-10µM, 24 h treatment; for Nucleosomen im Zelllysat: cell lysate; for Nucleosomen im Zellkulturüberstand: culture supernatant
Source text: Die Kernfragmentierung ist eine Spätfolge apoptotischer Prozesse. Die dabei zu beobachtenden Veränderungen lassen sich auf durch Endonukleasen gespaltene DNA-Stränge und daraus resultierende Fragmentierung in Nucleosomen Partikel zurückführen.
Zum Nachweis der Nucleosomen Partikel wurde der von der Firma Roche Molecular Biochemicals beschriebene CDD^plus Nucleosomen ELISA Test eingesetzt. Hierzu untersuchte man die Verbindungen 1 und 2 an der U-937 Zelllinie bei unterschiedlichen Konzentrationen (1nM-10µM, 24 h Behandlung). (s. Figur 5 und Figur 6)

[8] = assay type: physicochemical; details: water, at most 1 % DMSO added
Source text: Die Bestimmung der Sättigungslöslichkeit in Wasser für die Verbindungen 1, 2, 10 und 14 erfolgte wie nachfolgend beschrieben. Zum Anlösen der Substanzen und um die Benetzung der Proben zu verbessern, wurde maximal 1 % DMSO zugesetzt. Zur Überprüfung des Gehaltes wurde eine HPLC-UV-Methode angewandt. Die Ergebnisse sind in der nachfolgenden Tabelle 5 zusammengefasst: Tabelle 5: […]

Melanom, MEXF462 = assay type: in vivo, Mäuse; details: 80 mg/kg p.o.; day 18
Source text: Die in vivo Aktivität und Verträglichkeit der erfindungsgemäßen Verbindung 2 wurde im Vergleich zu den Substanzen 10 und 14 in einem humanen Xenograft-Modell (Melanom, MEXF462) überprüft. Die Ergebnisse sind in der nachfolgenden Tabelle 6 zusammengefasst: in vivo Aktivitäten von Verbindung 2, 10 and 14 (Melanom; MEXF462) Tabelle 6: […]

Mamma, MAXF857 = assay type: in vivo, Mäuse; details: 80 mg/kg p.o.
Source text: Die in vivo Aktivität und Verträglichkeit der erfindungsgemäßen Verbindung 2 wurde im Vergleich zu der Substanz 10 in einem weiteren humanen Xenograft-Modell (Mamma, MAXF857) überprüft. Die Ergebnisse werden in der nächsten Tabelle gezeigt: Effect of 2 and 10 on the Mammary Cancer MAXF857 Tabelle 7: […]

Rindertubulin = experiment: Inhibition of tubulin polymerisation in vitro; assay type: biochemical, Rind; details: for Hemmwirkung auf die Polymerisation von Tubulin: verbal summary of Table 3
Source text: Die Substanzen 1, 4, 9, 11, 12, 13 und 15 wurden in einem in-vitro Test auf Hemmung der Polymerisation von Rindertubulin getestet (D.M. Bollag et al. Cancer Res. 1995, 55, 2325-2333). In diesem Test wird durch Zyklen von Polymerisation und Depolymerisation aufgereinigtes Tubulin eingesetzt, welches durch Zugabe von GTP und Erwärmung zur Polymerisation gebracht wird. In Tabelle 3 sind die EC50 Werte der Polymerisationshemmung von Tubulin mit 30% assoziierten Proteinen (MAPs) angegeben.

[9] = molecular target: humaner DNA-Topoisomerase II (Homo sapiens, UniProt P11388); experiment: kDNA decatenation assay for topoisomerase II activity; assay type: biochemical; details: compound 1 at 100, 31.6 and 10 µM; reference compounds at 100 µM
Sequence of humaner DNA-Topoisomerase II (P11388 whole entry): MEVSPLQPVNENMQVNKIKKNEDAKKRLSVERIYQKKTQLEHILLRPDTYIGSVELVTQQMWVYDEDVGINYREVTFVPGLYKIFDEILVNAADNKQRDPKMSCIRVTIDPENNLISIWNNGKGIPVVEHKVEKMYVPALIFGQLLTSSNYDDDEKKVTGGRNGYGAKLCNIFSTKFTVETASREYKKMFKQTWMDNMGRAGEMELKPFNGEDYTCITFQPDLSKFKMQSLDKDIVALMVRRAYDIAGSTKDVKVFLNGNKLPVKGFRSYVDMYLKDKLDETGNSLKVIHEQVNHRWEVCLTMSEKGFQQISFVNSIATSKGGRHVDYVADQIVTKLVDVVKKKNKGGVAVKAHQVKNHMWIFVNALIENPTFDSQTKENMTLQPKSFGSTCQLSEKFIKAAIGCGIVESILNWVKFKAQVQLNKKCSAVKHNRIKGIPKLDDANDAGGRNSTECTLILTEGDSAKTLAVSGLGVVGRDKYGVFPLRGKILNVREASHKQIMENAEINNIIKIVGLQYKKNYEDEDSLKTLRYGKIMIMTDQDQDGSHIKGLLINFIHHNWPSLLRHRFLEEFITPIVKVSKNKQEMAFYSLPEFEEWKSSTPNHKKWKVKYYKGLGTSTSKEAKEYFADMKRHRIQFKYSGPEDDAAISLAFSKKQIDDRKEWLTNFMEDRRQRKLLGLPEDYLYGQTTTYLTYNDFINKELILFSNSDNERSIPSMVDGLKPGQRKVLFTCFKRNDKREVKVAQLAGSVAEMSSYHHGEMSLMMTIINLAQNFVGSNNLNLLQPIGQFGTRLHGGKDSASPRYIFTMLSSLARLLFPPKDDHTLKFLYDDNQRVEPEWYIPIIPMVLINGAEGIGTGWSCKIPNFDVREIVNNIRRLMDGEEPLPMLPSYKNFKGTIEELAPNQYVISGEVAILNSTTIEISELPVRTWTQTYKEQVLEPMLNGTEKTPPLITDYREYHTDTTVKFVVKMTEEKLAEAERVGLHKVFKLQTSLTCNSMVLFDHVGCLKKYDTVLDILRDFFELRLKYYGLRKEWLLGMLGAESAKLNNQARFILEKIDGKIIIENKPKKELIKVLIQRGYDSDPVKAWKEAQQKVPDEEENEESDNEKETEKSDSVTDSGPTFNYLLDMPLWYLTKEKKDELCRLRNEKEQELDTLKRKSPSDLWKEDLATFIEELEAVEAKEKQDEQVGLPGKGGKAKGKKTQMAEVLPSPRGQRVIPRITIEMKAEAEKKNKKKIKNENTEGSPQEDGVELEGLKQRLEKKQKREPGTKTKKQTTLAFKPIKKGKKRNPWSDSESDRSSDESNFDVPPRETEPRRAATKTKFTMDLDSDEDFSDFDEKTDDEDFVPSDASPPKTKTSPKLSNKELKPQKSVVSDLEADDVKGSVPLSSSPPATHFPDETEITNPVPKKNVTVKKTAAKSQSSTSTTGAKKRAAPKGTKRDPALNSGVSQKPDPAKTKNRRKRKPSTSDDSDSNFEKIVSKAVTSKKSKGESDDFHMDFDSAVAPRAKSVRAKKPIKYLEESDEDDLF
Procedure: In diesem von P. Arimondo (Anti-Cancer Drug Design 2000, 15 (6), 413-421) beschriebenen Assay wird kDNA mit humaner DNA-Topoisomerase II in Abwesenheit oder Gegenwart der Testverbindungen behandelt. Die Testung der erfindungsgemäßen Verbindung 1 erfolgte hierbei bei drei unterschiedlichen Konzentrationen (100, 31.6 und 10 µM). Zum Vergleich setzte man eine Positivkontrolle und die Referenzverbindungen m-Amsacrin (m-Amsa), Paclitaxel (Taxol) und Vincristine bei einer jeweiligen Konzentration von 100µM ein.
Zu 1µL vorgelegter Testsubstanz (20fach konzentriert in 100% DMSO) werden 2µL 10x Assay Puffer, 1µL kDNA (200ng), 0,5µL human Topoisomerase II (1unit) und 15,5µL H2O pipettiert und gemischt.
Die Reaktionsansätze werden in den auf 37°C vorgeheizten Heizblock gestellt und 10min bei 37°C inkubiert. Die Inkubation wird nach Zugabe von 4µL 5x Stop Puffer gestoppt und nachfolgend die Substanz mit CIA extrahiert. Danach werden 20µL des Überstandes auf ein 1 % Agarosegel mit 0,25µg/mL Ethidiumbromid aufgetragen und 1 h bei 100V aufgetrennt. Zum Schluss wird das Gel unter UV-Anregung fotografiert (s. Figur 1). Die Quantifizierung der Inhibierung der Decatenation von kDNA erfolgt mit der GelPro®Analyzer Software (s. Figur 2)

human Topoisomerase II = human Topoisomerase II (Homo sapiens, UniProt P11388); experiment: pRYG relaxation assay for topoisomerase II activity; assay type: biochemical; details: compound 1 at 100, 31.6 and 10 µM; reference compounds at 316 and 100 µM
Sequence of human Topoisomerase II (P11388 whole entry): as above
Procedure: Mit diesem Relaxationsassay konnte zusätzlich die inhibitorische Eigenschaft der erfindungsgemäßen Verbindungen auf Topoisomerase II gezeigt werden. Die Testung der erfindungsgemäßen Verbindung 1 erfolgte hierbei bei drei unterschiedlichen Konzentrationen (100, 31.6 und 10 µM). Zum Vergleich setzte man die Referenzverbindungen m-Amsacrin, Paclitaxel (Taxol) und Vincristine bei Konzentrationen von 316 und 100µM ein.
Zu 1µL vorgelegter Testsubstanz (20fach konzentriert in 100% DMSO) werden 2µL 10x Assay Puffer, 0,5µL pRYG DNA (125ng), 0,5µL human Topoisomerase II (1 unit) und 16µL H2O pipettiert und gemischt. Die Reaktionsansätze werden in den auf 37°C vorgeheizten Heizblock gestellt und 30min bei 37°C inkubiert. Die Inkubation wird nach Zugabe von 4µL 5x Stop Puffer abgestoppt. Danach werden 10µL des Ansatzes auf ein 1,2% Agarosegel mit 0,25µg/mL Ethidiumbromid aufgetragen und 2,5h bei 100V aufgetrennt. Zum Schluß wird das Gel unter UV Anregung fotografiert (s. Figur 3). Die Quantifizierung der Inhibierung der pRYG Relaxation erfolgt mit der GelPro®Analyzer Software (s. Figur 4).

[10] = LT12, LT12mdr, read-out: XTT Proliferationsassay, EC50
[11] = L1210, L1210VCR, read-out: XTT Proliferationsassay, EC50
[12] = P388, P388ADR, read-out: XTT Proliferationsassay, EC50
[13] = KB/HeLa cells, 0.1-1000 nM, 24 h at 37°C

CC(=O)N(C(=O)C(=O)c1cn(Cc2ccc(Cl)cc2)c2ccccc12)c1ccc2ncccc2c1 [Verbindung 2, N-{2-[1-(4-Chlor-benzyl)-1H-indol-3-yl]-2-oxo-acetyl}-N-chinolin-6-yl-acetamid]
EC50 [1]: 0.202 µg/mL (≈ 0.419 µM)
EC50 [2]: 0.123 µg/mL (≈ 0.255 µM)
EC50 [3]: 0.166 µg/mL (≈ 0.344 µM)
EC50 [4]: 0.168 µg/mL (≈ 0.349 µM)
EC50 [5]: 0.225 µg/mL (≈ 0.467 µM)
EC50 (LT12/mdr; LT12, read-out: XTT Proliferationsassay, EC50): 0.272 µg/mL (≈ 0.564 µM)
EC50 (murine L1210): 0.206 µg/mL (≈ 0.427 µM)
EC50 (L1210VCR; L1210, read-out: XTT Proliferationsassay, EC50): 0.558 µg/mL (≈ 1.16 µM)
EC50 [6]: 0.224 µg/mL (≈ 0.465 µM)
EC50 ([7]; P388, read-out: XTT Proliferationsassay, EC50): 0.215 µg/mL (≈ 0.446 µM)
EC50 (KB/HeLa Zellen; HeLa, 24 h): 125 nM
Nucleosomen im Zelllysat (U-937 Zelllinie): konzentrationsabhängiger Anstieg
Nucleosomen im Zellkulturüberstand (U-937 Zelllinie): kein signifikanter Anstieg
Sättigungslöslichkeit in Wasser [8]: 28.5 µg/mL
Optimale T/C % (Tag) (Melanom, MEXF462): 0.0%
Optimale T/C % (Tag) (Mamma, MAXF857; day 10): 9.6% (10)
Todesfällen (Mamma, MAXF857; dead animals / total): 0/6 Mäuse

O=C(Nc1cnc2nccnc2c1)C(=O)c1cn(Cc2ccc(Cl)cc2)c2ccccc12 [Verbindung 1, 2-[1-(4-Chlor-benzyl)-1H-indol-3-yl]-2-oxo-N-pyrido[2,3-b]pyrazin-7-yl-acetamid]
EC50 (LT12/mdr; [10]): 0.017 µg/mL (≈ 0.0385 µM)
EC50 (L1210VCR; [11]): 0.021 µg/mL (≈ 0.0475 µM)
EC50 [7, 12]: 0.019 µg/mL (≈ 0.043 µM)
Hemmung der Tubulin-Polymerisation, EC50 (Rindertubulin; tubulin with 30% associated proteins (MAPs), mean of two independent experiments): 0.71 µg/mL
Hemmwirkung auf die Polymerisation von Tubulin (Rindertubulin): sehr potente Hemmwirkung
Hemmung der Topoisomerase II (Inhibierung der Decatenation von kDNA) [9]: signifikante Hemmung
Hemmung der Topoisomerase II (Inhibierung der pRYG Relaxation) (human Topoisomerase II): signifikante Hemmung
EC50 (KB/HeLa Zellen; [13]): 25.2 nM
Nucleosomen im Zelllysat (U-937 Zelllinie): konzentrationsabhängiger Anstieg
Nucleosomen im Zellkulturüberstand (U-937 Zelllinie): kein signifikanter Anstieg
Sättigungslöslichkeit in Wasser [8]: 25.0 µg/mL

O=C(Nc1ccc2[nH]ncc2c1)C(=O)c1cn(Cc2ccc(Cl)cc2)c2ccccc12 [Verbindung 4, 2-[1-(4-Chlor-benzyl)-1H-indol-3-yl]-N-(1H-indazol-5-yl)-2-oxo-acetamid]
EC50 (LT12/mdr; [10]): 0.093 µg/mL (≈ 0.217 µM)
EC50 (L1210VCR; [11]): 0.241 µg/mL (≈ 0.562 µM)
EC50 [7, 12]: 0.231 µg/mL (≈ 0.539 µM)
Hemmwirkung auf die Polymerisation von Tubulin (Rindertubulin): sehr potente Hemmwirkung
EC50 (KB/HeLa Zellen; [13]): 252 nM
